Data set [1] relates to entrance of ^45Ca in small slices of heart. The data set can be described thus: Effect on the entrance of ^45Ca in small slices of heart. It counts as cell-based. The settings on record: 3 min. at 25° C., 0.5 mM Ca; for effect on the entrance of ^45Ca: result in words. The procedure: The effect on the entrance of ^45 Ca in small slices of heart incubated for 3 min. at 25° C. with 0.5 mM Ca is inhibitory both with FDP and with DPF and therefore both seem to protect the tissue from the anoxy occurring with the entrance of Ca.

In data set [2] the test system is small slices of rat heart. The data set can be described thus: Attack of ^14C-FDP and ^14C-DPF to small slices of rat heart. The settings on record: for Attack to small slices of rat heart: 5 mM, 40 min incubation at 25° C., 3 tests average. It counts as cell-based. From the text:
Small slices of rat heart were used to study comparatively the attack of ^14 C-FDP and ^14 C-DPF, the latter obtained by palmitoylation of a mixture of "hot" and "cold" FDP.

Data set [3] deals with organs (heart, kidneys, liver). The data set can be described thus: Radioactivity accumulated in organs after administration per os to rats. It counts as in vivo, rat. The settings on record: 3,000,000 dpm total, 1 hour after administration.
Procedure: The administration to rats of ^14 C-FDP and ^14 C-DPF per os (3,000,000 dpm total) allowed measurement of the radioactivity accumulated 1 hour after administration at the level of the organs and the results are reported in Table 2.
Data set [4] deals with perfused rat heart. The experiment in a line: Action on perfused rat heart (inotropic and chronotropic). Type of data set: cell-based. The settings on record: for EC50: biphasic inotropic and chronotropic effect, read-out: ED50 (perfused rat heart); for action on perfused heart (inotropic and chronotropic): result in words, final concentration.

The IC50 is the point on the concentration scale where inhibition reaches its midpoint.

Read-outs that look alike come from different tables or passages of the source.

Turning to `O=C(COP(=O)(O)O)[C@@H](O)[C@H](O)[C@H](O)COP(=O)(O)O` [FDP, fructose-1,6-diphosphate], the “effect on the entrance of ^45Ca” value in data set [1] is recorded as “inhibitory”. In data set [1] (0.05 h), the IC50 was 8000 µM. In addition, the “Attack to small slices of rat heart” value in data set [2] was found to be 260 ± 20 nmoles/100 mg. Further, in data set [3], the “Accumulation of radioactivity, Heart” value worked out at 508; the “Accumulation of radioactivity, Kidneys” value amounted to 395; the “Accumulation of radioactivity, Liver” value amounted to 624. Also, the EC50 in data set [4] (Rattus norvegicus) was 100 µM. For the same compound, in data set [4], the “action on perfused heart (inotropic and chronotropic)” value is “biphasic, i.e. inotropic and chronotropic, positive at concentrations lower than 1 mM (final) and negative for higher concentrations”.
As to “palmitoyl-fructose-1,6-diphosphate [DPF]”, in data set [1], the IC50 was determined as 5500 µM and the “effect on the entrance of ^45Ca” value is listed as “inhibitory”. Moreover, the “Attack to small slices of rat heart” value in data set [2] came to 344 ± 16 nmoles/100 mg. For the same compound, the “membrane affinity higher than that of FDP” value in data set [2] (relative to FDP) is 30%. Further, in data set [3], the “Accumulation of radioactivity, Heart” value is given as 1620; the “Accumulation of radioactivity, Kidneys” value is 1324; the “Accumulation of radioactivity, Liver” value is recorded as 1434. In addition, in data set [4], the EC50 was 40 µM; the “action on perfused heart (inotropic and chronotropic)” value is “biphasic effect but its effect appears at lower doses”.

Source of the values: US4916220A, “Palmitoyl-fructose-1,6-diphosphate, its therapeutic use and relevant preparation methods” (Biomedica Foscama Industria Chimico-Farmaceutica, priority 1988, dated 1990).
